Tests used:
[1] = Cyclic voltametry (oxidation potentials); format: physicochemical; conditions: for oxidation profile by cyclic voltametry: data not shown; for oxidation (electron donation) potential by cyclic voltametry: scan +0 to 1.8 V, 100 mV per second, acetonitrile
Description: To investigate whether cannabinoids protect neurons against glutamate damage by reacting with ROS, the antioxidant properties of cannabidiol and other cannabinoids were assessed. Cyclic voltametry, a procedure that measures the ability of a compound to accept or donate electrons under a variable voltage potential, was used to measure the oxidation potentials of several natural and synthetic cannabinoids. These studies were performed with an EG&G Princeton Applied Research potentiostat/galvanostat (Model 273/PAR 270 software, NJ). The working electrode was a glassy carbon disk with a platinum counter electrode and silver/silver chloride reference. Tetraethylammonium chloride in acetonitrile (0.1 M) was used as an electrolyte. Cyclic voltametry scans were done from +0 to 1.8 V at scan rate of 100 mV per second. […] Anandamide, a cannabinoid receptor ligand without a cannabinoid like structure, was used as a non-responsive control. Each experiment was repeated twice with essentially the same results.

[2] = test system: neurons (AMPA/kainate receptor mediated toxicity); test: AMPA and kainate receptor mediated toxicity in cultured neurons (LDH release); format: cell-based, Wistar rat; conditions: for attenuation of glutamate toxicity, comparison of antioxidants: 100 μM glutamate, equimolar 5 μM antioxidant (FIG. 5B)
Description: (§1) Primary neuronal cultures were prepared according to the method of Ventra et al. (J. Neurochem. 66:1752-1761, 1996). Fetuses were extracted by Cesarian section from a 17 day pregnant Wistar rat, and the feral brains were placed into phosphate buffered saline. The cortices were then dissected out, cut into small pieces and incubated with papain for nine minutes at 37° C. After this time the tissue was dissociated by passage through a fire polished Pasteur pipette, and the resultant cell suspension separated by centrifugation over a gradient consisting of 10 mg/ml bovine serum albumin and 10 mg/ml ovomucoid (a trypsin inhibitor) in Earls buffered salt solution. The pellet was then re-suspended in high glucose, phenol red free Dulbeco's modified Eagles medium containing 10% fetal bovine serum, 2 mM glutamine, 100 IU penicillin, and 100 μg/ml streptomycin (DMEM). Cells were counted, tested for vitality using the trypan blue exclusion test and seeded onto poly-D-lysine coated 24 multiwell plates. After 96 hours, 10 μM fluoro-deoxyuridine and 10 μM uridine were added to block glial cell growth.
Astrocyte conditioned DMEM was used throughout the AMPA/kainate toxicity procedure and following glutamate exposure in the NMDAr mediated toxicity protocol. Media was conditioned by 24 hour treatment over a confluent layer of type I astrocytes, prepared from two day old Wistar rat pups. Cortices were dissected, cut into small pieces, and enzymatically digested with 0.25% trypsin. Tissue was then dissociated by passage through a fire polished Pasteur pipette and the cell suspension plated into untreated 75 cm^2 T-flasks. After 24 hours the media was replaced and unattached cells removed. Once astrocytes achieved confluence, cells were divided into four flasks. Media for experiments was conditioned by a 24 hour exposure to these astrocytes, after which time it was frozen at −20° C. until use. Astrocyte cultures were used to condition DMEM for no longer than two months.
To examine AMPA and kainate receptor mediated toxicity, neurons were cultured for 7-13 days, then exposed to 100 μM glutamate and 50 μM cyclothiazide (used to prevent AMPA receptor desensitization). […] Specific AMPA and kainate receptor ligands were also used to separately examine the effects of cannabinoids on AMPA and kainate receptor mediated events. Fluorowillardiine (1.5 μM) was the AMPA agonist and 4-methyl glutamate (10 μM) was the kainate agonist used to investigate receptor mediated toxicity. When specifically examining kainate receptor activity, cyclothiazide was replaced with 0.15 mg/ml Concanavalin-A.

[3] = Iron catalyzed dihydrorhodamine oxidation (Fenton reaction); conditions: 50 μM dihydrorhodamine, 300 μM t-butyl hydroperoxide, 0.5 μM iron, 5 minutes
[4] = test system: NMDA receptor; conditions: cited from earlier work
[5] = test system: cannabinoid receptor; conditions: cited from earlier work
[6] = J. Pharmacol. Sci. 60:1433-1457 (1971); cited from earlier work
[7] = test system: cultured neurons (NMDAr mediated toxicity); test: NMDA mediated toxicity in cultured neurons (LDH release); format: cell-based, Wistar rat; conditions: 0.5 μg/ml, administered both during and post ischemia (FIG. 8)
Description: as §1
To examine NMDAr mediated toxicity, cultured neurons (cultured for 14-18 days) were exposed to 250 μM glutamate for 10 minutes in a magnesium free saline solution. […]

In the case of `CCCCCCC(C)(C)c1cc(O)c2c(c1)OC(C)(C)C1CCC(=O)CC21` (stereo not shown) [nabilone], the “oxidation profile by cyclic voltametry” value [1] is reported as “oxidation profiles similar to cannabidiol and THC”.

With `Cc1cc(C(C)(C)C)c(O)c(C(C)(C)C)c1` [BHT] the “attenuation of glutamate toxicity, comparison of antioxidants” value [2] was “attenuated glutamate toxicity” and the “prevention of dihydrorhodamine oxidation” value [3] was “prevented dihydrorhodamine oxidation”.

For `CCCCCCC(C)(C)c1cc(O)c2c(c1)OC(C)(C)[C@@H]1CC=C(CO)CC21` (single isomer, unassigned; (-)) [HU-211], the “oxidation (electron donation) potential by cyclic voltametry” value (“oxidation (electron donation) potential” for short) [1] is listed as “donated electrons at a similar potential as the antioxidant BHT”, the “activity at the NMDA receptor” value [4] is listed as “retains NMDA receptor antagonist neuroprotective activity” and the “affinity to the cannabinoid receptors” value [5] is listed as “low affinity”.

In the case of `CC(=O)Oc1cc(O[C@H](C)CCCc2ccccc2)cc2c1[C@@H]1C[C@H](O)CC[C@H]1[C@H](C)N2` [levanantrodol], the “oxidation profile by cyclic voltametry” value [1] is reported as “oxidation profiles similar to cannabidiol and THC”.

For `CCCCCCC(C)(C)c1cc(O)c2c(c1)OC(C)(C)[C@@H]1CC=C(CO)C[C@@H]21` [HU-210, 1,1 dimethylheptyl (DMH) homolog of [3R,4R]-7-hydroxy-Δ^6THC], the “cannabinomimetic activity relative to natural Δ^9 THC” value ([5]; U.S. Pat. No. 5,434,295) is given as “two orders of magnitude greater” and the “side effects in subjects” value [6] is given as “severe side effects, including fatigue, thirst, headache, and hypotension”.

With `Cc1c(C)c2c(c(C)c1O)CC[C@@](C)(CCC[C@H](C)CCC[C@H](C)CCCC(C)C)O2` [α-tocopherol] the “attenuation of glutamate toxicity, comparison of antioxidants” value [2] was “attenuated glutamate toxicity”.

For tetrahydrocannabinol [THC], the “neuroprotection in presence of cannabinoid receptor antagonist SR-141716A” value ([2]; 5 μM compound plus SR-141716A (FIG. 2B)) was “Neither THC nor cannabidiol neuroprotection was affected”, the “neuroprotection in AMPA/kainate receptor toxicity assays” value ([2]; 100 μM Glu, 5 μM compound (FIG. 2A)) was “similarly protective” and the “oxidation (electron donation) potential” value [1] was “donated electrons at a similar potential as the antioxidant BHT”. The “prevention of dihydrorhodamine oxidation” value [3] was “prevented dihydrorhodamine oxidation”.

For `CCCCC/C=C\C[C@H](O)/C=C/C=C\C/C=C\CCCC(=O)O` [Compound 12-HETE, 12-(s)-hydroxy-eicosatetraenoic acid], the “protection of cortical neurons from NMDAr toxicity” value [7] was “best protection”.

For `CCCCC/C=C\C/C=C\C/C=C\C/C=C\CCCC(=O)NCCO` [Anandamide, arachidonyl ethanolamide], the “oxidation (electron donation) potential” value [1] was “did not undergo oxidation”.

Source: US6630507B1, “Cannabinoids as antioxidants and neuroprotectants” (The United States of America as represented by the …, priority 1998, dated 2003)
